Laboratory results: patent US6867186B2, “Cell-permeable protein inhibitors of calpain” (New England Medical Center Hospital, priority 1997, dated 2005)
Where two headings read alike, the source gives them in different places. One block for each molecule: values may come before it. Peptide text beside a SMILES is read from it. * marks the point of attachment. Cbz = O=C(OCc1ccccc1)*; CHN2 = [N-]=[N+]=C*

Tests used:
platelets [1] = assay: cells; format: cell-based; conditions: for effect on platelet spreading / IC50: spreading on glass; for IC50: NI=no inhibition, read-out: IC50, inhibition of platelet spreading
Experimental: Platelet activation on surfaces can be inhibited by […] or […] fusion proteins. […] The cellular area of spread platelets was determined by computer assisted image analysis using NIH Image 1.61. […] Percent inhibition of spreading was calculated from the increase in mean cell area for untreated and treated samples vs. unspread DMSO controls.

gel filtered platelets = assay: Thrombin-induced platelet aggregation (aggregometer); format: cell-based, human; conditions: for effect on platelet aggregation: thrombin or SFLLR induced; for IC50: initial rate during first 15 seconds, NI=no inhibition, peptidyl inhibitors 10 min pre-incubation, read-out: IC50, initial rate of thrombin-induced platelet aggregation
Experimental: In one series of experiments, platelets were purified from […] on a SEPHAROSE 2B column in PIPES buffered saline containing glucose, pre-incubated with 45 μM calpastat or S-TIPPEY-ala for 30 minutes at 37° C., and placed in a cuvette in a BIODATA aggregometer. The aggregometer measures turbidity of the solution by nephlometry (light scatter). Aggregation was induced with thrombin (0.1 to 1 unit/ml) or the thrombin receptor agonist peptide SFLLR (SEQ ID NO:5). […] In contrast, S-TIPPEY-ala had no activity. A version of S-TIPPEYIN lacking the signal sequence similarly had no activity.
In another series of experiments, gel filtered platelets were obtained and tested as follows. Blood from healthy, aspirin-free volunteers was collected by venipuncture into 4% sodium citrate (9:1 v/v, final concentration 0.4%) and centrifuged at 200×g for 20 minutes to obtain platelet rich plasma (PRP). Following incubation with apyrase (4 units/ml for 5 minutes at room temperature), platelets were purified from PRP by gel-filtration at room temperature using a Sepharose 2B column equilibrated in PIPES buffer (25 mM PIPES pH 6.8, 140 mM NaCl, 4 mM KCl, and 0.1% glucose) (Hsu-Lin, et al., J. Biol. Chem. 259:9121-9126, 1984). Final gel filtered platelet concentrations were about 1.5×10^8 cells/ml.
Gel filtered platelets (250 μl aliquots at 1.6×10^8/ml) were incubated with the indicated concentration of calpastat or mutant calpastat-ala for either 20 or 30 minutes at 37° C. in the absence of calcium and stirring. To test peptidyl calpain inhibitors, platelets were preincubated with the indicated concentration of calpeptin, MDL, E64d, DMSO (vehicle control) or NH4Cl (cathepsin control) for 10 minutes at 37° C. Following incubation, platelets were recalcified (CaCl2, 2 mM) and stimulated with 0.05-1.0 unit/ml thrombin, while being stirred (1400 rpm) at 37° C. The sensitivity of platelet preparations to thrombin decreased over the course of a given experiment. The thrombin concentration used was to elicit robust aggregation and varied between 0.05 and 1.0 U/ml. Aggregation was measured using a Bio-Data lumi-aggregometer. Percent inhibition of aggregation was measured at 4 minutes following the onset of aggregation. The initial rate of aggregation during the first 15 seconds for treated vs. untreated samples was used to calculate the IC50 for each inhibitor.

HIV-1 = conditions: 24 h
Experimental: (§1) U1 is a human promonocytic cell line that is chronically infected with HIV-1 and that constitutively expresses low levels of HIV-1. […] In the present experiment, 1×10^6 cells/ml were treated with various dosages of calpastat and incubated for one hour at 37° C. After incubation, various concentrations of Tpg were added to the calpastat-treated cells and aliquoted into a 24-well plate. To observe the stimulation of HIV-1 activity by Tpg, equivalent numbers of cells were treated with Tpg alone. The cells were then incubated at 37° C. for up to four days, and supernatants from the cell culture were collected each day to measure HIV-1 activity. The viability of cells treated with both Tpg and calpastat were determined each day by Trypan-blue exclusion test. The HIV-1 activity in the collected supernatants was determined by measuring the HIV-1 p24 core antigen protein by ELISA (Dupont Medical Products, Boston, Mass.) according to the manufacturer's instructions.
In another series of experiments, U1 cells, which are latently infected with HIV-1 provirus, were plated at 10^6 cells/well in 1 ml of medium and treated with varying concentrations of either calpastat (FIG. 7E) or calpeptin (benzyloxycarbonyl-leucyl-norleucinal) (FIG. 7F) for 45 minutes before addition of thapsigargin (4 nM final concentration). […] After 48 hours of stimulation, HIV-1 p24 antigen levels were determined in 200 μl of tissue culture supernatant, using a p24 ELISA (DuPont). All assays were performed on triplicate cultures.

U1 cells = assay: U1 cell viability (Trypan-blue exclusion); format: cell-based, human; conditions: for U1 cell viability: 96 hr
Experimental: as §1
In another series of experiments, U1 cells, which are latently infected with HIV-1 provirus, were plated at 10^6 cells/well in 1 ml of medium and treated with varying concentrations of either calpastat (FIG. 7E) or calpeptin (benzyloxycarbonyl-leucyl-norleucinal) (FIG. 7F) for 45 minutes before addition of thapsigargin (4 nM final concentration). The viability of U1 monocytes was 90% at 48 hours of thapsigargin (4 nM) treatment, in the presence or absence of calpain inhibitors. After 48 hours of stimulation, HIV-1 p24 antigen levels were determined in 200 μl of tissue culture supernatant, using a p24 ELISA (DuPont). All assays were performed on triplicate cultures. Mean values and standard deviations are shown for each concentration of inhibitor (FIGS. 7E-7F).

platelets [2] = assay: cells
Experimental: To determine whether S-TIPPEYIN could inhibit α-granule secretion in platelets, surface expression of P-selectin, which indicates α-granule secretion, was induced with the thrombin peptide SFLLR (SEQ ID NO:5) and analyzed by flow cytometry using an antibody against P-selectin. Blood from healthy volunteers was collected into sodium citrate (4% w/v) and centrifuged at 200×g for 10 minutes to prepare platelet-rich plasma (PRP), from which platelets were subsequently purified by gel filtration using a SEPHAROSE 2B column in PIPES buffer. Twenty μl of platelets (approximately 2×10^8 platelets/ml) were aliquoted into eppendorf tubes and one μl of S-TIPPEYIN, TIPPEYIN (lacking the signal peptide sequence), or S-TIPPEY-ala was added to achieve final concentrations of 6.25, 12.5, 25, 50, or 100 μM. The platelets were then incubated for 2 hours at 37° C. and subsequently exposed to either 1 μl PBS (unstimulated) or 1 μl of SFLLR (SEQ ID NO:5; stimulated) at the indicated concentration. After 30 seconds, a 7.5 μl aliquot was transferred to an eppendorf tube containing non-immune serum having antibodies that were conjugated to phycoerythrin. Following a 20 minute incubation at room temperature, the mixture was diluted with 1 ml of 2% paraformaldehyde and incubated at 4° C. for two hours. Antibody binding to platelet surface P-selectin was quantified using a FACSCAN flow cytometer (Becton Dickerson, San Jose, Calif.). Results were reported as the geometric mean of the relative fluorescence.
Platelets were pre-incubated with increasing concentrations of calpeptin, MDL, E64d, or DMSO (vehicle control) for ten minutes prior to stimulation with SFLLR.

calpain = assay: Ionophore-dependent calpain degradation of ABP and talin in platelets; format: cell-based; conditions: 5, 8, or 10 minutes A23187
Experimental: To investigate whether calpastat inhibits calpain activity in platelets, the ionophore-dependent proteolysis of actin binding protein (ABP; about 280 kDa) and talin (about 240 kDa), both of which are substrates of both μ- and m-calpains, was examined as follows.
Platelets were pre-incubated with ZLLYCHN2, DMSO (solvent for ZLLY-CHN2), calpastat, or HEPES buffer (buffer for calpastat), and then treated with or without ionophore A23187 for 5, 8, or 10 minutes. The platelets were then gel-purified as described above. Whole cell lysates were prepared and fractionated by SDS polyacrylamide gel electrophoresis.

[3] = biological target: T1, purified µ-calpain (porcine erythrocyte) (porcine, UniProt P35750 1-714; P04574 1-266, limits assumed); assay: cell-based or functional assay
T1 sequence (looked up) 1: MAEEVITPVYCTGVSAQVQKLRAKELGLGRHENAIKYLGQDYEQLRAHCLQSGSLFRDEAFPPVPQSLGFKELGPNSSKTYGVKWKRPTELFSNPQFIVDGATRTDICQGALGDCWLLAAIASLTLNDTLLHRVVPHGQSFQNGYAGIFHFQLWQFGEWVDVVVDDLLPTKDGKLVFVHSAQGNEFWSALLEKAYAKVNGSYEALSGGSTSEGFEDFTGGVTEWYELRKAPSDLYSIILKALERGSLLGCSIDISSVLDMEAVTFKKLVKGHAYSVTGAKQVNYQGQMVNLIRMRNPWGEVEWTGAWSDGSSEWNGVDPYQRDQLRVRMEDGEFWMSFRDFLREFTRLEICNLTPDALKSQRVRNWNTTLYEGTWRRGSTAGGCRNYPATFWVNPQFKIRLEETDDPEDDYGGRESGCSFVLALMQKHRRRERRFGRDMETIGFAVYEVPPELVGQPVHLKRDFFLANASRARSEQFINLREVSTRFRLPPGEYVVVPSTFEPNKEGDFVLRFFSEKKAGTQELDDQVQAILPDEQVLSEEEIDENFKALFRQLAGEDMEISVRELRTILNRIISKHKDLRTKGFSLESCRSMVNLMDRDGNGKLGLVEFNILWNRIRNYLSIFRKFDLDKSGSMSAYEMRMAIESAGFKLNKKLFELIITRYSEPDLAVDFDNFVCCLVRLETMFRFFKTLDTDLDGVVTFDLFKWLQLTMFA
T1 sequence (looked up) 2: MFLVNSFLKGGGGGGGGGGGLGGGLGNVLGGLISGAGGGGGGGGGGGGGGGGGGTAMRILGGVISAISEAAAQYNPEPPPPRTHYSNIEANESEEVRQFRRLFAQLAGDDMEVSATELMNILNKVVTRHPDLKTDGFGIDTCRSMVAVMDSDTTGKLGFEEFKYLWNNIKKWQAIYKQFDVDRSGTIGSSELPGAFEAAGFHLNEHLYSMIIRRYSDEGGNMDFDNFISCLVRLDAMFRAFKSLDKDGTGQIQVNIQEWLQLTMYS

Molecule: Cl.N [NH4Cl]
effect on platelet spreading (platelets [1]): no effect | effect on platelet aggregation (gel filtered platelets): does not affect platelet aggregation

Molecule: CC(C)[C@H](NC(=O)OCc1ccccc1)C(=O)N[C@H](C=O)Cc1ccccc1 [MDL] (Cbz-Val-Phe-aldehyde)
platelets round and unspread (platelets [1]; pre-treated at 200 μM): 30% | IC50 (platelets [1]): 200 µM | IC50 (gel filtered platelets): 240 µM

Molecule: C/C=C(/C)C(=O)O[C@H]1C(C)=C2[C@H]([C@@H]1OC(=O)CCCCCCC)[C@@](C)(OC(C)=O)C[C@H](OC(=O)CCC)[C@@]1(O)[C@H]2OC(=O)[C@@]1(C)O [thapsigargin]
induction of virus (HIV-1) (HIV-1; 1 nM Tpg): 1.37 fold | induction of virus (HIV-1) (HIV-1; 5 nM Tpg): 20 fold | U1 cell viability (U1 cells; 4.0 nM Tpg): about 50% | viability of U1 monocytes (U1 cells; 4 nM thapsigargin, 48 hours, presence or absence of calpain inhibitors): 90% | U1 cell viability (U1 cells; 50 nM Tpg): ~5%

IC50 (platelets [2]; Homo sapiens, Platelet, read-out: IC50 / half-maximal inhibition of P-selectin surface expression): 200 to 300 µM | IC50 (platelets [1]; Platelet): 200 µM | IC50 (gel filtered platelets; Homo sapiens, Platelet): 150 µM
Molecule: CCCC[C@@H](C=O)NC(=O)[C@H](CC(C)C)NC(=O)OCc1ccccc1 [Calpeptin, benzyloxycarbonyl-leucyl-norleucinal]
platelets round and unspread (platelets [1]; pre-treated at 200 μM): 30%

Molecule: EKLGERDDTIPPEYRELLEKKTGV [Calpastatin 24 mer]
effect on SFLLR-induced P-selectin surface expression (platelets [2]; pre-incubation, SFLLR stimulation): little effect | effect on platelet aggregation (gel filtered platelets): no measurable effect | effect on platelet aggregation (gel filtered platelets; listed as S-TIPPEYIN lacking the signal sequence): no activity

Molecule: CC(C)C[C@H](NC(=O)OCc1ccccc1)C(=O)N[C@@H](CC(C)C)C(=O)N[C@@H](Cc1ccc(O)cc1)C(=O)C=[N+]=[N-] [ZLLYCHN2, reference compound] (Cbz-Leu-Leu-Tyr-CHN2)
effect on platelet spreading (platelets [1]): no inhibitory activity | A23187-dependent calpain degradation of ABP and talin in platelets (calpain): inhibited

Molecule: CCOC(=O)[C@H]1O[C@@H]1C(=O)N[C@@H](CC(C)C)C(=O)NCCC(C)C [E64d]
platelets round and unspread (platelets [1]; pretreated at 250 μM): About 20% | IC50 (platelets [1]): > 250 µM | IC50 (gel filtered platelets): 340 µM

inhibition of calpain cleavage of [14C]-methylcasein in a cell-free system (2.7 µM µ-calpain), IC50 [3]: 0.5 µM | inhibition of µ-calpain cleavage of suc-LLVY-AMC (fluorometric calpain assay, 70 nM enzyme), IC50 [3]: 0.05 µM
Molecule: H-AAVALLPAVLLALLAPEKLGERDDTIPPEYRELLEKKTGV-OH [calpastat]
